{"source": "paper PMC9792776", "about": "(Frontiers in Pharmacology, 2022)", "key": {"CYP3A4 [1]": {"molecular_target": "T1, CYP3A4 (Homo sapiens, UniProt P08684)", "T1 sequence (P08684 whole entry)": "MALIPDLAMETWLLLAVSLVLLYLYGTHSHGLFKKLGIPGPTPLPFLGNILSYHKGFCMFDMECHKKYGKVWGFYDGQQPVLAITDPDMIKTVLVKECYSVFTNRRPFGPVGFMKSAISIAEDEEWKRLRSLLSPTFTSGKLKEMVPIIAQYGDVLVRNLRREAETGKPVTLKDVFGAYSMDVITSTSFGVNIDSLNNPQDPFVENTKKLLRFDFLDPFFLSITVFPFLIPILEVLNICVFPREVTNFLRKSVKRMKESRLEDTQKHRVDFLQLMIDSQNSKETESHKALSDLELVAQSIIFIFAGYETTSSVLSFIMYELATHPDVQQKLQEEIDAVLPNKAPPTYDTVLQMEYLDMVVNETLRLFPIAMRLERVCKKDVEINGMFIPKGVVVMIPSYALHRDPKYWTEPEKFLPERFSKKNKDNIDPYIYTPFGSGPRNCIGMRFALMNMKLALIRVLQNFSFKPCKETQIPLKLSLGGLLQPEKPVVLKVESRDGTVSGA", "assay": "Intrinsic clearance in human recombinant CYP3A4"}, "CYP3A4 [2]": {"molecular_target": "T1, CYP3A4", "assay": "Clinical DDI study with itraconazole and rifampicin in healthy American (White) subjects", "conditions": "for Cmax: plasma, oral, Cmax Obs.", "procedure": "After a 3-day washout period, they were pretreated with 200 mg of oral itraconazole once daily for 4 days to inhibit CYP3A4 (Days 5–8). […] After a 3-day washout, subjects were pretreated with 600 mg of oral rifampicin once daily for 7 days to induce CYP3A4 (Days 5–11). […] Blood samples were collected immediately before and after drug administration at 0.5, 1, 2, 4, 6, 8, 12, 24, 48, 72, and 96 h."}, "MATE1": {"molecular_target": "MATE1 (Homo sapiens, UniProt Q96FL8)", "sequence (Q96FL8 whole entry, species assumed)": "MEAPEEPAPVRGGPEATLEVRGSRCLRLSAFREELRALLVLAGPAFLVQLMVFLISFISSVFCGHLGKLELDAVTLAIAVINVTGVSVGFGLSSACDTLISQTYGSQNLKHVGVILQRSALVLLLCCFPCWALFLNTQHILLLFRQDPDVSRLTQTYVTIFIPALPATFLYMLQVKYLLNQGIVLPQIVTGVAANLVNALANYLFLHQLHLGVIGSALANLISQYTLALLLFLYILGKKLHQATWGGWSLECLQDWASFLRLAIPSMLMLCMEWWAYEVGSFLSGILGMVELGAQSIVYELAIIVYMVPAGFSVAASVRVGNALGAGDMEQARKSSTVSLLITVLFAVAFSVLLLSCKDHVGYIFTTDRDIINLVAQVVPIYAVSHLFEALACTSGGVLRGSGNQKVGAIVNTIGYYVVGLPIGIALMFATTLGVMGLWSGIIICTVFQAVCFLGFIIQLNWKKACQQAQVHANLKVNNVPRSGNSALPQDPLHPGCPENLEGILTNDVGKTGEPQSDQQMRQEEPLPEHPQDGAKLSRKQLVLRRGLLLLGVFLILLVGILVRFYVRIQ", "assay": "Transporter substrate/inhibitor assessment, MATE1", "type": "in vitro ADME"}, "[3]": {"assay": "Human mass balance study with [14C]olverembatinib (NCT04126707)", "type": "in vivo"}, "[4]": {"assay": "Food effect clinical study in Chinese patients with CML (NCT03882281)", "type": "in vivo, human", "text": "In the first study, on food effects, 12 Chinese patients with CML were randomly divided into two groups (A and B) and the experiments divided into two periods. […] After a seven- day washout period, subjects in both groups took the drug interchangeably in period 2 (NCT03882281)."}, "CYP1A2": {"tested_on": "CYP1A2", "assay": "CYP1A2 mRNA induction in cultured human hepatocytes", "type": "cell-based", "conditions": "in vitro studies"}, "OATP1B1": {"molecular_target": "T2, OATP1B1 (Homo sapiens, UniProt Q9Y6L6)", "T2 sequence (Q9Y6L6 1-691)": "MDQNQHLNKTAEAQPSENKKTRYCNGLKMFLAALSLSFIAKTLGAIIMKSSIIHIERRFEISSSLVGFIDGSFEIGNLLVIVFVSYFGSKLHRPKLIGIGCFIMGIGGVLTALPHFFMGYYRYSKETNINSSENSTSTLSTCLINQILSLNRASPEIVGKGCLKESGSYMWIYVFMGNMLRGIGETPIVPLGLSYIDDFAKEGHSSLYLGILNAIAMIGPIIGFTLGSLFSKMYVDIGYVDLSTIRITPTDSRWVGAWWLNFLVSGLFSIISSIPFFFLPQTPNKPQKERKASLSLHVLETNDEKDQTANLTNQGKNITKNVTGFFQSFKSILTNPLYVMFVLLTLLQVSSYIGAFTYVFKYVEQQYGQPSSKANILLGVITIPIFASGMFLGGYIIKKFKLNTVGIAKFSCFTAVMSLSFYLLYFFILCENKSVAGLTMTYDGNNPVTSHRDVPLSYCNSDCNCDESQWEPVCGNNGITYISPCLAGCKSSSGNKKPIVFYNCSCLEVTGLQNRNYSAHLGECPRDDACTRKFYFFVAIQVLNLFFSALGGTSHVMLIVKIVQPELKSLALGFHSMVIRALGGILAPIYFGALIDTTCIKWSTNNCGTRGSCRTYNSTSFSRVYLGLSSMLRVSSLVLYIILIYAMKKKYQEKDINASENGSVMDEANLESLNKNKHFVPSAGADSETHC", "assay": "Transporter substrate/inhibitor assessment, OATP1B1", "type": "in vitro ADME"}, "CYP2C9 [5]": {"molecular_target": "CYP2C9 (Homo sapiens, UniProt P11712)", "sequence (P11712 whole entry)": "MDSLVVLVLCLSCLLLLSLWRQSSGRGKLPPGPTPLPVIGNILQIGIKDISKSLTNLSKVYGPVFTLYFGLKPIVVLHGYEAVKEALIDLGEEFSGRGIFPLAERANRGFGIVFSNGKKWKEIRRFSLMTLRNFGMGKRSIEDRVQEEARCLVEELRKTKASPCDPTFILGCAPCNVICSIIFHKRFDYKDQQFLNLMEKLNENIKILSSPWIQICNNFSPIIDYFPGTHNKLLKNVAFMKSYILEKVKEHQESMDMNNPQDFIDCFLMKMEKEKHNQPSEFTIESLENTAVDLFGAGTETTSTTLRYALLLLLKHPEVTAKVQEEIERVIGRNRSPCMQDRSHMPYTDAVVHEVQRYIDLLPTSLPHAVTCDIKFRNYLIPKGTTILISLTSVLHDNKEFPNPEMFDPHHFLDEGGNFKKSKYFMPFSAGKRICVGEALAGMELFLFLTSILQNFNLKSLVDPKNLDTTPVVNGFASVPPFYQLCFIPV", "assay": "Intrinsic clearance in human recombinant CYP2C9"}, "CYP2B6": {"tested_on": "CYP2B6", "assay": "CYP2B6 mRNA induction in cultured human hepatocytes", "type": "cell-based", "conditions": "for EC50: human, cultured human hepatocytes"}, "OCT2": {"molecular_target": "T3, OCT2 (Homo sapiens, UniProt O15244)", "T3 sequence (O15244 1-555)": "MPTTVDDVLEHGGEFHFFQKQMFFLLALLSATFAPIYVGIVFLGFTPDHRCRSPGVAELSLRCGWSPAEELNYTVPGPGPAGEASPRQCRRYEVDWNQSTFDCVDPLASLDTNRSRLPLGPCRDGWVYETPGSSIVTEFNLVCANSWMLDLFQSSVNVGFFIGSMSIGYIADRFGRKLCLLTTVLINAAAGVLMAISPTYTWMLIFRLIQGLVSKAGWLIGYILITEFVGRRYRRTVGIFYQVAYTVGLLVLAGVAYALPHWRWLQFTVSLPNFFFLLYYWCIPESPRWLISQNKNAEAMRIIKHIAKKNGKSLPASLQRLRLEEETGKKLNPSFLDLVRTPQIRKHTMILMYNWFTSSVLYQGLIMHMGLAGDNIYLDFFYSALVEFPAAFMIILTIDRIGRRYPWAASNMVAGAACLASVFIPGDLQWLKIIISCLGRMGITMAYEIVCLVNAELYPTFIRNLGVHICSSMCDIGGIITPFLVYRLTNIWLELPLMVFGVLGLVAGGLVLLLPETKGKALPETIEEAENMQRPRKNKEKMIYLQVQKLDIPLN", "assay": "Transporter substrate/inhibitor assessment, OCT2", "type": "in vitro ADME"}, "in vitro": {"assay": "in vitro", "conditions": "human"}, "CYP2C9 [6]": {"tested_on": "CYP2C9", "assay": "in vitro", "conditions": "human"}, "P-gp": {"molecular_target": "P-gp (Homo sapiens, UniProt P08183)", "sequence (P08183 whole entry)": "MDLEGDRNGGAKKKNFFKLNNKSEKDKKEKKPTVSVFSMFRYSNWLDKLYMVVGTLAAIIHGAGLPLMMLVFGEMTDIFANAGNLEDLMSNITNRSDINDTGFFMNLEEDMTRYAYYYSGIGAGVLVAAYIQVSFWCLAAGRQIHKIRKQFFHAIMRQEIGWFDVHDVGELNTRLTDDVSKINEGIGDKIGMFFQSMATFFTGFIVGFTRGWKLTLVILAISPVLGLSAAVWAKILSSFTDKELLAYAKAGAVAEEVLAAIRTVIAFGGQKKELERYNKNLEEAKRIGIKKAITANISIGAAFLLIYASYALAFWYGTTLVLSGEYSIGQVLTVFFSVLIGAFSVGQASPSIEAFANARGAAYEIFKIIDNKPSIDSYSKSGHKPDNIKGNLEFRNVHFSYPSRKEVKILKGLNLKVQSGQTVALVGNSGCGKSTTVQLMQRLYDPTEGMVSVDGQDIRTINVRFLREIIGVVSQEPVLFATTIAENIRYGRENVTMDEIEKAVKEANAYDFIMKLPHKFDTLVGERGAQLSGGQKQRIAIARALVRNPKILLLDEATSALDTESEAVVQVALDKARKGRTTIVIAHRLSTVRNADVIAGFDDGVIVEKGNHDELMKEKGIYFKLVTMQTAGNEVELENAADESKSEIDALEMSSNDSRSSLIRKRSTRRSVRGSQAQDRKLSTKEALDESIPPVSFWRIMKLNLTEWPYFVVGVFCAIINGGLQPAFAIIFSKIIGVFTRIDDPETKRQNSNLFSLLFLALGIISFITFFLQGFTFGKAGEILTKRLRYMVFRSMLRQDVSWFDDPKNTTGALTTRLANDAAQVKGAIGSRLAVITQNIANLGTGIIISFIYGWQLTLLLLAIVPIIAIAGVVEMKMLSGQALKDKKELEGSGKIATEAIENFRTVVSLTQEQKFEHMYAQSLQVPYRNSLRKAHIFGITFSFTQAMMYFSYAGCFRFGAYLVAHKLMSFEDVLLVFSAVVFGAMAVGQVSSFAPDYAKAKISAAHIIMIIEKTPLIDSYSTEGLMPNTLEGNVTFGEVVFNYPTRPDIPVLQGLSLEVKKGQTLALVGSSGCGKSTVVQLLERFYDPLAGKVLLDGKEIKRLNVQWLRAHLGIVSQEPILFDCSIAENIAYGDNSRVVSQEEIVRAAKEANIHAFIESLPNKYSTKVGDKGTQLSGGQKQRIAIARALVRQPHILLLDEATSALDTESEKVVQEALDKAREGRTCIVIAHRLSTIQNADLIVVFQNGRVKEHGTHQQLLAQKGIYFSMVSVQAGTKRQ", "assay": "P-gp inhibition (Ki calculated from IC50)", "type": "in vitro ADME", "conditions": "calculated with IC50, substrate concentration and substrate Km"}, "[7]": {"conditions": "single radiolabeled 30 mg dose, healthy subjects"}, "[8]": {"conditions": "Chinese CML patients, fed, 30 mg SD"}}, "note": "Where two headings read alike, the source gives them in different places."}
{"smiles": "Cc1ccc(C(=O)Nc2ccc(CN3CCN(C)CC3)c(C(F)(F)F)c2)cc1C#Cc1cnc2[nH]ncc2c1", "note": "[olverembatinib, Olverembatinib]", "values": [{"measurement": "CLint CYP3A4", "setting": "CYP3A4 [1]", "value": 0.200, "unit": "µL/min/pmol CYP"}, {"measurement": "AUC Obs.", "setting": "CYP3A4 [2]; White healthy volunteers, fed, 20 mg SD, olverembatinib alone", "value": 125, "unit": "h?ng/mL"}, {"measurement": "AUC Obs.", "setting": "CYP3A4 [2]; White healthy volunteers, fed, 40 mg SD, olverembatinib alone", "value": 302, "unit": "h?ng/mL"}, {"measurement": "AUC Obs.", "setting": "CYP3A4 [2]; coadministration with itraconazole, healthy White volunteers", "value": 330, "unit": "h?ng/mL"}, {"measurement": "AUC Obs.", "setting": "CYP3A4 [2]; coadministration with rifampicin, healthy White volunteers", "value": 73.0, "unit": "h?ng/mL"}, {"measurement": "AUC decrease after rifampicin administration", "setting": "CYP3A4 [2]; human, in vivo", "value": 76, "unit": "%"}, {"measurement": "AUC increase after itraconazole treatment", "setting": "CYP3A4 [2]; human, in vivo, 200 mg", "value": 163, "unit": "%"}, {"measurement": "Cmax", "setting": "CYP3A4 [2]; human, 20 mg, White healthy volunteers, fed, 20 mg SD, olverembatinib alone", "value": 5.26, "unit": "ng/mL"}, {"measurement": "Cmax", "setting": "CYP3A4 [2]; human, 40 mg, White healthy volunteers, fed, 40 mg SD, olverembatinib alone", "value": 12.7, "unit": "ng/mL"}, {"measurement": "Cmax", "setting": "CYP3A4 [2]; human, coadministration with itraconazole, healthy White volunteers", "value": 9.14, "unit": "ng/mL"}, {"measurement": "Cmax", "setting": "CYP3A4 [2]; human, coadministration with rifampicin, healthy White volunteers", "value": 4.54, "unit": "ng/mL"}, {"measurement": "substrate or inhibitor of MATE1", "setting": "MATE1", "value": "neither a substrate nor inhibitor"}, {"measurement": "AUC Obs.", "setting": "[3]; Chinese healthy volunteers, fasting, 26.85 mg SD", "value": 153, "unit": "h?ng/mL"}, {"measurement": "Cmax", "setting": "[3]; male, human, plasma, oral, Chinese healthy volunteers, fasting, 26.85 mg SD", "value": 8.09, "unit": "ng/mL"}, {"measurement": "Tmax", "setting": "[3]; male, human, plasma, oral, Chinese healthy volunteers, fasting, 26.85 mg SD, read-out: Tmax Obs. (median)", "value": 6, "unit": "h"}, {"measurement": "cleared drug unchanged in feces", "setting": "[3]; [7]", "value": "About 23.95%"}, {"measurement": "eliminated as the parent drug in urine", "setting": "[3]; [7]", "value": 0.02, "unit": "%"}, {"measurement": "dose recovered in urine", "setting": "[3]; single radiolabeled 30 mg dose, healthy subjects, within 96 h", "value": 1.57, "unit": "%"}, {"measurement": "dose recovered in feces", "setting": "[3]; single radiolabeled 30 mg dose, healthy subjects, within 216 h", "value": 87.68, "unit": "%"}, {"measurement": "AUC Obs.", "setting": "[4]; Chinese CML patients, fasting, 30 mg SD", "value": 237, "unit": "h?ng/mL"}, {"measurement": "AUC Obs.", "setting": "[4]; [8]", "value": 276, "unit": "h?ng/mL"}, {"measurement": "Tmax Obs. (median)", "setting": "[4]; [8]", "value": 6.00, "unit": "h"}, {"measurement": "half-life", "setting": "[4]; human, plasma, 30 mg, oral, patients with CML, data on file, read-out: mean apparent terminal elimination half-life (t1/2) (converted)", "value": 32.7, "unit": "h"}, {"measurement": "Tmax", "setting": "[4]; human, plasma, 30 mg, oral, patients with CML, data on file, read-out: median time to reach peak plasma concentration (Tmax)", "value": 6, "unit": "h"}, {"measurement": "Cmax", "setting": "[4]; human, plasma, oral, 30 mg, Chinese CML patients, fasting, 30 mg SD", "value": 8.72, "unit": "ng/mL"}, {"measurement": "Cmax", "setting": "[4]; human, plasma, oral, 30 mg, Chinese CML patients, fed, 30 mg SD", "value": 10.8, "unit": "ng/mL"}, {"measurement": "Tmax", "setting": "[4]; human, plasma, oral, Chinese CML patients, fasting, 30 mg SD, read-out: Tmax Obs. (median)", "value": 6, "unit": "h"}, {"measurement": "CYP1A2 induction, strength", "setting": "CYP1A2", "value": "weak"}, {"measurement": "substrate or inhibitor of OATP1B1", "setting": "OATP1B1", "value": "neither a substrate nor inhibitor"}, {"measurement": "CLint CYP2C9", "setting": "CYP2C9 [5]", "value": 0.022, "unit": "µL/min/pmol CYP"}, {"measurement": "EC50", "setting": "CYP2B6; CYP2B6 mRNA, lot AIH, read-out: EC50", "value": 828, "unit": "nM"}, {"measurement": "EC50", "setting": "CYP2B6; CYP2B6 mRNA, lot HUM182851, read-out: EC50", "value": 290, "unit": "nM"}, {"measurement": "EC50", "setting": "CYP2B6; human hepatocytes, mRNA, mean of two lots, read-out: IndC50 CYP2B6 (Mean EC50)", "value": 559, "unit": "nM"}, {"measurement": "CYP2B6 induction, strength", "setting": "CYP2B6; in vitro studies", "value": "weak"}, {"measurement": "substrate or inhibitor of OCT2", "setting": "OCT2", "value": "neither a substrate nor inhibitor"}, {"measurement": "microsomal CLint", "setting": "in vitro", "value": 5.26, "unit": "µL/min/mg"}, {"measurement": "EC50", "setting": "CYP2C9 [6]; EC50", "value": 584, "unit": "nM"}, {"measurement": "EC50", "setting": "CYP2C9 [6]; IndC50 CYP2C9 (Mean EC50)", "value": 454, "unit": "nM"}, {"measurement": "Ki", "setting": "P-gp", "value": 2230, "unit": "nM"}]}
